We go through one compound from patent US20010036949A1, “Pharmaceutical composition and method of treatment of diseases of cognitive dysfunction in a mammal” (priority 2000, published 2001).

The structures appear in SMILES notation.

In one test the target is T1, human m4 receptor (Homo sapiens, UniProt P08173).
T1 construct: host or cells: CHO-K1
T1 sequence (P08173 1-479): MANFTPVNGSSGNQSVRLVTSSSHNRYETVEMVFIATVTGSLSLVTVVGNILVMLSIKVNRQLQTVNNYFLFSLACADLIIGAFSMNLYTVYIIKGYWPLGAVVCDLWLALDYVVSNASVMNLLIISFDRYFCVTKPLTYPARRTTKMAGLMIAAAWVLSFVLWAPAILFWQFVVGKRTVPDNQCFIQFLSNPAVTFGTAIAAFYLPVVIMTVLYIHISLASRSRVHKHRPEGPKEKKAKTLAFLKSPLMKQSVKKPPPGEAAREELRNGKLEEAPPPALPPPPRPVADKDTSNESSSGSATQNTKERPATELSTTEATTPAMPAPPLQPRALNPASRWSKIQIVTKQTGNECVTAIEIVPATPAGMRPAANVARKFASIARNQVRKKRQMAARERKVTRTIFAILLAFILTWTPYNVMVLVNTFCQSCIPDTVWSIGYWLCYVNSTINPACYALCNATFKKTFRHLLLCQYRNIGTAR
The test can be described thus: Inhibition of forskolin-stimulated cAMP accumulation, m4 receptor. The format is cell-based. The note with it: standard agonist, typical value, 5 uM forskolin. How it is done:
(§1) The activity of muscarinic receptors can be determined according to the following protocol. Chinese hamster ovary cells (CHO-K1) stably transformed to express human m1-m5_receptors can be obtained from Dr. Tom Bonner (Laboratory of Cell Biology, National Institute of Mental Health, Building 36, Rm 3A-17, National Institute of Health, Bethesda, Md. 20892). Cells are maintained in Dulbecco's Modified Eagle Medium containing 10% fetal calf serum and harvested at confluence by brief incubation in Ca++/Mg++_free phosphate-buffered saline containing 4 mM EDTA.
(§2) Functional responses at m2 and m4 receptors can be determined by measuring inhibition of forskolin-stimulated cAMP accumulation. Harvested cells are preincubated (15 minutes at 20-22° C.) with 3-isobutyl-1-methyl-xanthine ([…]; 0.2 mM) and then incubated (10 minutes at 20-22° C.) in a HEPES-buffered Krebs solution with test compounds in the presence of 5 uM forskolin. The reaction is stopped by the addition of 10N acetic acid and the CAMP content of dried supernatants is determined using a scintillation proximity assay (Amersham).

A further test deals with T2, human m2 receptor (Homo sapiens, UniProt P08172).
T2 sequence (P08172 1-466): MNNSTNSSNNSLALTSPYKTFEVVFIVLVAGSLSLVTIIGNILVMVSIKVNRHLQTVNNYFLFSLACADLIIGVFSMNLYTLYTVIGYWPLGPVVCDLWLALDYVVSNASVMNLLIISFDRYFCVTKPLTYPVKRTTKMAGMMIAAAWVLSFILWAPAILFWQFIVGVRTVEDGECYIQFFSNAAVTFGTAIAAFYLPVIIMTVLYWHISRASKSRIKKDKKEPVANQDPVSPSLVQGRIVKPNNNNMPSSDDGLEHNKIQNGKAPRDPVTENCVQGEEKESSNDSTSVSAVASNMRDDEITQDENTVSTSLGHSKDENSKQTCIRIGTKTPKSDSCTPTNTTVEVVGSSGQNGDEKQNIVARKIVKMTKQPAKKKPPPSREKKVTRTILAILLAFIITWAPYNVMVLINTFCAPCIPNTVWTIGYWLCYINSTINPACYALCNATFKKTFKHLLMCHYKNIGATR
The test can be described thus: Inhibition of forskolin-stimulated cAMP accumulation, m2 receptor. The test is classed as cell-based. Conditions: standard agonist, typical value, 5 uM forskolin. How it is done:
as §1, §2

As for `C[N+](C)(C)CCOC(N)=O` [Carbachol], the “inhibition of the forskolin-stimulated cAMP levels” value on human m4 receptor and on human m2 receptor was 60-80% each time.
